In ChEMBL document CHEMBL1201862, “PubChem BioAssay data set” (2004):
The source made the active and inactive calls.

Key:
Type in all cases: functional
[1] = target: T1, Protein RecA (Mycobacterium tuberculosis, UniProt P9WHJ3); assay: Fluorescence Cell-Free Homogeneous Dose Retest to Identify Inhibitors of RecA-Intein Splicing Activity. [Related pubchem assays (depositor defined):AID2097, AID2223, AID489010, AID492950]
T1 sequence (P9WHJ3 whole entry): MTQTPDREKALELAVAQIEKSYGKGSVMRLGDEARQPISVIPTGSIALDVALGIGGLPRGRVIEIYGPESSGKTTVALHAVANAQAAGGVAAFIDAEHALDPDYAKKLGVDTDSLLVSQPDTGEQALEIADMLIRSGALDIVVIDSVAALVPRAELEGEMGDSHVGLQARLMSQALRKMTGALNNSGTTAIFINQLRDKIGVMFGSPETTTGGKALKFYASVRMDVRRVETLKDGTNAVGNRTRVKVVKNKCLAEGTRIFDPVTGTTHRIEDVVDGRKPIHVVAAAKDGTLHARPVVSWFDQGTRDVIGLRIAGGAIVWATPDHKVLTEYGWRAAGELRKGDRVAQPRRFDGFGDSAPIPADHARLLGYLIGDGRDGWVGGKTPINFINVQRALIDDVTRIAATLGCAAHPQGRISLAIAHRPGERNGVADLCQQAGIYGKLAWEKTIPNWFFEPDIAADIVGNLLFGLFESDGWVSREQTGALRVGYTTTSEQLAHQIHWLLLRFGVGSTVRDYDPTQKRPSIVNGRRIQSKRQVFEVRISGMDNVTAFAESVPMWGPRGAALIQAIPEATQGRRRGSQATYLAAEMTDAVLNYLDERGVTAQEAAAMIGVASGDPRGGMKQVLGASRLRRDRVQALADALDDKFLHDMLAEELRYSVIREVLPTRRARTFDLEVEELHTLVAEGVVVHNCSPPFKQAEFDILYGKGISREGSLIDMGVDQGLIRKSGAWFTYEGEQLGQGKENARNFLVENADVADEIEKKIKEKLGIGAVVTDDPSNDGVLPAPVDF

[2] = tested on: INS1; assay: INS-1E survival protection against cytokine death – cell-based, luminescence, retest, dose response (AID 449756); details: Rattus norvegicus;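 further: cell death triggered by IL-1 beta plus TNF-alpha plus IFN-gamma mixture; protective hits raise ATP signal compared with cytokine alone wells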
[3] = target: T2, Sentrin-specific protease 6 (Homo sapiens, UniProt Q9GZR1);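 further: Luminescence-based dose-response confirmatory assay of SENP6 inhibition, following up an ultra-high-throughput screen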
T2 sequence (Q9GZR1 whole entry): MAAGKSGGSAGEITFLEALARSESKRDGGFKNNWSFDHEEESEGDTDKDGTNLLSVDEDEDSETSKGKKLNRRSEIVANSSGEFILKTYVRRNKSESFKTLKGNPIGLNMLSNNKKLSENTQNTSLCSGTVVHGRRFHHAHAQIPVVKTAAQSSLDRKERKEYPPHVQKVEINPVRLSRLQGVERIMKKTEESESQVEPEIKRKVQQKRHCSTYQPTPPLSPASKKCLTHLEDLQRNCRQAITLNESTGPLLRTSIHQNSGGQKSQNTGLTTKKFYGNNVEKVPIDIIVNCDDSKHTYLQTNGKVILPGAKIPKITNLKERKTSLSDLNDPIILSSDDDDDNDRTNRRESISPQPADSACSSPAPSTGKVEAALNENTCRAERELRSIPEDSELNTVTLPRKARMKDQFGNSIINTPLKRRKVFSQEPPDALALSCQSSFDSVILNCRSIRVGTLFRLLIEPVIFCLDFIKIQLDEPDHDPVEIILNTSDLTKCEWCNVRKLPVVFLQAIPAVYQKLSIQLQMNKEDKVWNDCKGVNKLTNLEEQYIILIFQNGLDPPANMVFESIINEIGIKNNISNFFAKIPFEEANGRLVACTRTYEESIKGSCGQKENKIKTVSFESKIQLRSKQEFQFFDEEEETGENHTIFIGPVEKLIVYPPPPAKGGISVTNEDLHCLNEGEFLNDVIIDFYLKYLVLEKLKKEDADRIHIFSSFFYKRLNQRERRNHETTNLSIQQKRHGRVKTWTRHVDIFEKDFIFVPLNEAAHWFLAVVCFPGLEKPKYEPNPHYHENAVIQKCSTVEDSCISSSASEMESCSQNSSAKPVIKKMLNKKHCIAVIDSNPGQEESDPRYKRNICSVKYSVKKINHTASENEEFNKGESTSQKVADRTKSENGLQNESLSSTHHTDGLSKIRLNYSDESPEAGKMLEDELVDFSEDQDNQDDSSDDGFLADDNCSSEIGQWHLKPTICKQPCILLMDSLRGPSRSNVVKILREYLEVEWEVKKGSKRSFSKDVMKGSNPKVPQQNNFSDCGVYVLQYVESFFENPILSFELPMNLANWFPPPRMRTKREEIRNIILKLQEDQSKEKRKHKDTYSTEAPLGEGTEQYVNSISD

[4] = target: T3, Sentrin-specific protease 7 (Homo sapiens, UniProt Q9BQF6);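 further: Luminescence-based dose-response confirmation of ultra-high-throughput screening hits, measuring inhibition of SENP7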
T3 sequence (Q9BQF6 whole entry): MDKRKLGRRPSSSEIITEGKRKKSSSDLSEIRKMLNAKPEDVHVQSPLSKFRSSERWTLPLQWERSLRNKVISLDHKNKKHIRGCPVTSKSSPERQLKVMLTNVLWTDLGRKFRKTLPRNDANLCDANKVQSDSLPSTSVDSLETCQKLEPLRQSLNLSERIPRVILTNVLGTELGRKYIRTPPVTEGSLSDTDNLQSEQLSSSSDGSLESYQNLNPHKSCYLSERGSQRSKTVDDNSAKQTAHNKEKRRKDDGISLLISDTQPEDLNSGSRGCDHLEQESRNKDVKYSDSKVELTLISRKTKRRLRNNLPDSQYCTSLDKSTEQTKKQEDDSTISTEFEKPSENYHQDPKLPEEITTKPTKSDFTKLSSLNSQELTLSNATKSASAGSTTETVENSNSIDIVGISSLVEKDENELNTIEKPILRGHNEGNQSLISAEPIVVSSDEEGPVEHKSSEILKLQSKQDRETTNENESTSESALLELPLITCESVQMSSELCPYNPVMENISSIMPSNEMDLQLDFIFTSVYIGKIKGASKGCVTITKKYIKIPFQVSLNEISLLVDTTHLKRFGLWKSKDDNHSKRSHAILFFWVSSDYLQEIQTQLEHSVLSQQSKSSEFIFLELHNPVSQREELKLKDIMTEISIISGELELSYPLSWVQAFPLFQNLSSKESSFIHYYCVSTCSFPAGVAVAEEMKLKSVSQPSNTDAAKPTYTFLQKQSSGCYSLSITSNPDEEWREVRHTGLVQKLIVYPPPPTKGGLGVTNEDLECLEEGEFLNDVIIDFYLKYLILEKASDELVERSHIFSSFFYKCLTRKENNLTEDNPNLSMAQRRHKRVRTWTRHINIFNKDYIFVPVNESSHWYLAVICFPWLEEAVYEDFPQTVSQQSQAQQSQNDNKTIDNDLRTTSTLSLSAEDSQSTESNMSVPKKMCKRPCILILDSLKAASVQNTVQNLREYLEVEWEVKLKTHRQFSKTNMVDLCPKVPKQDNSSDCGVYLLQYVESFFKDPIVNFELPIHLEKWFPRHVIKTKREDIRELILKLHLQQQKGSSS

[5] = target: Mitochondrial peptide methionine sulfoxide reductase (Bos taurus, UniProt P54149);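 further: absorbance read-out, biochemical high-throughput dose-response screen for MsrA inhibitors, confirmatory; recombinant bovine MsrA coupled to E. coli TrxB with NADPH and selenocystamine; potency is for inhibitors of MsrA activity on DMSO substrate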
Chain of Mitochondrial peptide methionine sulfoxide reductase (P54149 whole entry): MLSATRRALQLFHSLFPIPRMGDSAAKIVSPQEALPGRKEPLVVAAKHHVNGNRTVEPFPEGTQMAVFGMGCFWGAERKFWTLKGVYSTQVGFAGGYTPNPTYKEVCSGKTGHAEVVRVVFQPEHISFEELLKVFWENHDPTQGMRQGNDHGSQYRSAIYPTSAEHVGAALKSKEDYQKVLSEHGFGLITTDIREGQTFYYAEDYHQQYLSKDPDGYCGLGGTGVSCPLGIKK

For `COC(=O)C[C@]1(C(=O)OC)CN(C#N)N(c2ccc(Cl)cc2)C12c1ccccc1-c1ccccc12`, the EC50 [1] was 1.77 µM (active) and the AC50 [2] was 2.77 µM (active).
`O=C(Nc1ccc(C#Cc2ccccc2)cc1)C1CC1` was tested, and the IC50 [3] was > 100 µM (inactive) and the IC50 [4] was 3.38 µM (active).
For `CCCCn1c(NC(=O)c2ccco2)c(C(=O)OCC)c2nc3ccccc3nc21`, the IC50 [3] was 3.25 µM (active) and the IC50 [4] was 10.1 µM (active).
`Cc1ccccc1NC1=C/C(=N\S(=O)(=O)c2ccc(C(=O)O)cc2)c2ccccc2C1=O` was tested, and the IC50 [5] was 62.4 µM (inactive), the EC50 [1] was 3.67 µM (active) and the AC50 [2] was 4.38 µM (active).
With `Cc1ccc(NC2=C/C(=N/S(=O)(=O)c3cccs3)c3ccccc3C2=O)cc1` the IC50 [5] was 425 µM (inactive), the IC50 [3] was 0.186 µM (active) and the EC50 [1] was 0.119 µM (active). For the same compound, the IC50 [4] was 0.359 µM (active) and the AC50 [2] was 0.72 µM (active).
For `COc1ccc(-c2cc(-c3ccc(C)cc3)[nH]n2)c(O)c1`, the IC50 [3] was 19.7 µM (active) and the IC50 [4] was 6.63 µM (active).
